Source: patent US10526316B2, “Quinoxaline and pyridopyrazine derivatives as PI3Kβ inhibitors” (Janssen Pharmaceutica NV, priority 2015, dated 2020)

What was measured:
[1] = target: T1, PI3Kβ (Homo sapiens, UniProt P42338); experiment: Enzyme binding assay (KINOMEscan, DiscoveRx); conditions: PIK3Cβ_h, read-out: Kd PIK3Cβ_h
T1 construct: purchased DiscoveRx Corporation, San Diego (contract service, KINOMEscan)
Procedure, shortened: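 KINOMEscan binding platform; read-out is the inhibitor binding constant Kd (nM).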

[2] = target: T2, PI3Kδ (Homo sapiens, UniProt O00329); experiment: Enzyme binding assay (KINOMEscan, DiscoveRx); conditions: PIK3Cδ_h
T2 construct: purchased DiscoveRx Corporation, San Diego (contract service, KINOMEscan)
T2 sequence (O00329 1-1044): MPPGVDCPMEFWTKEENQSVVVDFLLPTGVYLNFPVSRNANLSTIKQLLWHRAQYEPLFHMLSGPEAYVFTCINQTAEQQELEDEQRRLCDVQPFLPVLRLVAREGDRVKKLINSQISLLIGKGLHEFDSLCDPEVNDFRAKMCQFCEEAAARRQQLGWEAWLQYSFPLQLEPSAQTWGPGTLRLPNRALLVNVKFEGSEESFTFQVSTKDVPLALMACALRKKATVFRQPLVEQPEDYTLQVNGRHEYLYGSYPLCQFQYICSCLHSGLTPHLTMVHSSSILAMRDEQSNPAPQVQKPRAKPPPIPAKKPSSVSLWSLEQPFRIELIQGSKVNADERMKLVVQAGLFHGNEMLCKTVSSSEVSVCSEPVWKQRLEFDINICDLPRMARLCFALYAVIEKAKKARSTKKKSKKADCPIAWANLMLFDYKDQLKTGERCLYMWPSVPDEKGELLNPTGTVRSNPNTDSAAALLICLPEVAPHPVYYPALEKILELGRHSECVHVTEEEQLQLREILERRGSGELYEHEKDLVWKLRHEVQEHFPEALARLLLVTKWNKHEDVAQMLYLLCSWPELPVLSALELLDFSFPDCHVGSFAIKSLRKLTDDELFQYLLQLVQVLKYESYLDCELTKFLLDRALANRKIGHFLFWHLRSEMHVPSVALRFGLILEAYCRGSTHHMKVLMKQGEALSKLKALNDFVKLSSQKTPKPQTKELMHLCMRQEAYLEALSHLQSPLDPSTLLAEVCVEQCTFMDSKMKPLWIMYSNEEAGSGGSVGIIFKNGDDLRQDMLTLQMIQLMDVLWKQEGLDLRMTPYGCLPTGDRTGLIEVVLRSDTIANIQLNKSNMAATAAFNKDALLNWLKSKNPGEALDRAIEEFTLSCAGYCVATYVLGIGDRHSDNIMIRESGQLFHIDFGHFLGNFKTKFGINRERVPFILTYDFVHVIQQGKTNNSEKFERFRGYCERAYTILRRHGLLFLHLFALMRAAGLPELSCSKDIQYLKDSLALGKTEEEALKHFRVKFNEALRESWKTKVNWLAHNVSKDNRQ
Procedure, shortened: (§1)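 KINOMEscan readout; values are kinase binding affinities.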

[3] = target: T3, kinase enzymes (Homo sapiens, UniProt P42336); experiment: Enzyme binding assay (KINOMEscan, DiscoveRx), further kinases of Table A; conditions: PIK3Cα_h
T3 construct: purchased DiscoveRx Corporation, San Diego (contract service, KINOMEscan)
Procedure, shortened: as §1

[4] = target: T4, kinase enzymes (Homo sapiens, UniProt P42345); experiment: as above; conditions: MTOR_h
T4 construct: purchased DiscoveRx Corporation, San Diego (contract service, KINOMEscan)
Procedure, shortened: as §1

[5] = target: T5, kinase enzymes (Homo sapiens, UniProt P48736); experiment: as above; conditions: PIK3Cγ_h
T5 construct: purchased DiscoveRx Corporation, San Diego (contract service, KINOMEscan)
Procedure, shortened: as §1

[6] = system: Akt phosphorylated at Ser473 in PC-3 cells; experiment: Cellular assay: phosphorylation of Akt at Ser473 in PC-3 cells (MSD ELISA); type: cell-based; conditions: Homo sapiens, PC-3, 1 h, PC-3 cells, 60 min compound incubation, MSD ELISA; read-out: IC50 pAkt_S473
Procedure, shortened: (§2)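 Compound treatment of PC-3 cells lasted 60 min at 37° C (0.3% DMSO). Lysates were then applied to plates carrying capture antibodies for the relevant phospho-site, and bound Akt was detected with an electrochemiluminescent anti-total Akt antibody; IC50s derive from five-point curves.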

[7] = system: Akt phosphorylated at Thr308 in PC-3 cells; experiment: Cellular assay: phosphorylation of Akt at Thr308 in PC-3 cells (MSD ELISA); type: cell-based; conditions: Homo sapiens, PC-3, 1 h, PC-3 cells, 60 min compound incubation, MSD ELISA; read-out: IC50 pAkt_Thr308
Procedure, shortened: as §2

T1 sequence (P42338 whole entry): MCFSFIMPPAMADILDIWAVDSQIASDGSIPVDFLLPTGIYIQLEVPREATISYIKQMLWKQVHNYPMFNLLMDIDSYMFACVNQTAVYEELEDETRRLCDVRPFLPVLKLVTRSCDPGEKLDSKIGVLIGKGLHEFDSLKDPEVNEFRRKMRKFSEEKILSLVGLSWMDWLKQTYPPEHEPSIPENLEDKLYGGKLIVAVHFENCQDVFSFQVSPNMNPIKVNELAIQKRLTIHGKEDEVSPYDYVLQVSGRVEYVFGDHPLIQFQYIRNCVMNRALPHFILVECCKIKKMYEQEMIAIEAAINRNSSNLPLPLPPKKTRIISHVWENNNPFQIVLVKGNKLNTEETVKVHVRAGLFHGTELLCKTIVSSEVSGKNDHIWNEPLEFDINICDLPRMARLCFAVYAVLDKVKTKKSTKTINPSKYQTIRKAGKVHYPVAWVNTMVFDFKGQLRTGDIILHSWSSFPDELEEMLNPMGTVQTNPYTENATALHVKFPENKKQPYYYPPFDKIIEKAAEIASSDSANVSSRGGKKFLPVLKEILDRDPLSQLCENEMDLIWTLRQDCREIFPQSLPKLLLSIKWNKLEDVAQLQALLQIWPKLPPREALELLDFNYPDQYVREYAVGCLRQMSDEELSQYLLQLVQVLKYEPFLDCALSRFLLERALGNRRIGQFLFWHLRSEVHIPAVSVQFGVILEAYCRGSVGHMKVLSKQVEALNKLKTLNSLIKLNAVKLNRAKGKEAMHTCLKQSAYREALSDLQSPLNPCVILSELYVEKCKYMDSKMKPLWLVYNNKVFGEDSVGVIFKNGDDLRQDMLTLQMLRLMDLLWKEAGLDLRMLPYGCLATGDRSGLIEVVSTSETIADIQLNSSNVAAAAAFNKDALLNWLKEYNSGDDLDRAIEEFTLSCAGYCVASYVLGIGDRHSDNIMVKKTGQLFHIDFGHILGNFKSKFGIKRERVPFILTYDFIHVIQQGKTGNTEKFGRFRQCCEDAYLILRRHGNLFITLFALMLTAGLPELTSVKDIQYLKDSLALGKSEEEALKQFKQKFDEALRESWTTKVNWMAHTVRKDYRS
T3 sequence (P42336 whole entry): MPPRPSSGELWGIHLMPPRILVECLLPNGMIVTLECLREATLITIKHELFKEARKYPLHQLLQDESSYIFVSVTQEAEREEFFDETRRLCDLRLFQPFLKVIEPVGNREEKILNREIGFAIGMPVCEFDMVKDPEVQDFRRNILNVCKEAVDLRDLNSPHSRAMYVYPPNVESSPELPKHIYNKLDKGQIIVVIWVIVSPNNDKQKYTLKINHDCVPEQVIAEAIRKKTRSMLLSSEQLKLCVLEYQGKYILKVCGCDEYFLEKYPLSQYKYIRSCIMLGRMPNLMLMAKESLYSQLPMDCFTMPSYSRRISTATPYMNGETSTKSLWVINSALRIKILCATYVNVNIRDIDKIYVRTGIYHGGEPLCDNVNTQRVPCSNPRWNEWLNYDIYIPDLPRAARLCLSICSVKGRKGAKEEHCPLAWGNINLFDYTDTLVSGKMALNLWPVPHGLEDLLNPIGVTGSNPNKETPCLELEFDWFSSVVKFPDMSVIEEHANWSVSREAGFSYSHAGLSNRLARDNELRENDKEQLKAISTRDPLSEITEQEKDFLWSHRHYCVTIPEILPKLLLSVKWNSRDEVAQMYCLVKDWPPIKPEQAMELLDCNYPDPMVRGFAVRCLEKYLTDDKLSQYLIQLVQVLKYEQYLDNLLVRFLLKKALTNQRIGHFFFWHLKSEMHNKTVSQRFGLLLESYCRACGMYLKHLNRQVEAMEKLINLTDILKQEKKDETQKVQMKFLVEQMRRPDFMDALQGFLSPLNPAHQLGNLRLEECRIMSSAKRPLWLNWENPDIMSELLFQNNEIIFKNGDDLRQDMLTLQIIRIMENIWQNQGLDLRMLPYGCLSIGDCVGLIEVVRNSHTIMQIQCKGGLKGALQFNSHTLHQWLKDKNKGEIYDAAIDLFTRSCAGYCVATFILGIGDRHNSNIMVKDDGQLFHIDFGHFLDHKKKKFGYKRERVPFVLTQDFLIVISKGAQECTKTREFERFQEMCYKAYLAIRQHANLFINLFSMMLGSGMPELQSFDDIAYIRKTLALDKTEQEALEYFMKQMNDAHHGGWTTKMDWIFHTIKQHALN
T5 sequence (P48736 whole entry): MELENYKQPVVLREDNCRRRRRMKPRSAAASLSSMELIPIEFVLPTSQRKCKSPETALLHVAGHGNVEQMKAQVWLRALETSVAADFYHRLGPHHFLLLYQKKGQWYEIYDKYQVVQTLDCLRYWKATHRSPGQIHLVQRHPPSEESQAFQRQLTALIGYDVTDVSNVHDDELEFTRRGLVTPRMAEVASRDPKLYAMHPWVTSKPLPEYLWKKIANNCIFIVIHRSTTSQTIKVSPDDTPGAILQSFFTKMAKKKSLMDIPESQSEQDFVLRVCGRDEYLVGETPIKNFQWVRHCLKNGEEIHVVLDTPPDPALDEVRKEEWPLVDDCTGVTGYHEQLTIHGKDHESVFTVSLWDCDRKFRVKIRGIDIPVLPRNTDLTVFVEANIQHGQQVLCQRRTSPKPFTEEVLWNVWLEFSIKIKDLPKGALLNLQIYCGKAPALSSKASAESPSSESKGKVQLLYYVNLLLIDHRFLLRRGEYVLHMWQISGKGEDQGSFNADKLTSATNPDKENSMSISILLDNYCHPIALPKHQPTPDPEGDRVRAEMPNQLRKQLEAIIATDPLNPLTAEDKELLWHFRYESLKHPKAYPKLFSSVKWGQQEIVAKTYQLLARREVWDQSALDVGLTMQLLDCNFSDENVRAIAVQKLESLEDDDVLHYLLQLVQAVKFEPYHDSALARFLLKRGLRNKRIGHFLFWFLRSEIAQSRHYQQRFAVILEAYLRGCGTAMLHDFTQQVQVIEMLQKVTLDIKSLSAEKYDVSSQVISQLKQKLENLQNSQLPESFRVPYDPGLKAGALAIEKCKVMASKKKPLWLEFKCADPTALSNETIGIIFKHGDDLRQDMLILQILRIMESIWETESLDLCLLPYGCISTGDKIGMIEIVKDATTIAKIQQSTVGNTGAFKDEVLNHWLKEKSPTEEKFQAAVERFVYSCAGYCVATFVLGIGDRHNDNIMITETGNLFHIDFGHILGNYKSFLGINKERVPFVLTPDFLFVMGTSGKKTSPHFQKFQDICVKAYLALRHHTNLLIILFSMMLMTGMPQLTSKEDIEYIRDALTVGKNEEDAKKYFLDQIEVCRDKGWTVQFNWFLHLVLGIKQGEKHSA

| Compound | Kd [1] [nM] | Kd [2] [nM] | Kd [3] [µM] | Kd [4] [µM] | Kd [5] [µM] | IC50 [6] [nM] | IC50 [7] [nM] | melting point [°C] |
| --- | --- | --- | --- | --- | --- | --- | --- | --- |
| CC(Oc1ccc(F)c(F)c1)c1cc(C(=O)N(C)CCN(C)C)cc2ncc(N3CCOCC3)nc12 (stereo not drawn) [Compound 353] | 4 | 692 | 5.01 | > 30.2 | > 30.2 | 52 | 18 | 80 |
| CN(C(=O)c1cc(NCc2cc(F)cc(F)c2)c2nc(N3CCOCC3)cnc2c1)[C@@H]1CCNC1 [Compound 355] | 13 | 2880 | 4.79 | 13.2 | 20.9 | > 513 | 437 | 80 |
| CC1CN(C(=O)c2cc(C(C)Nc3ccc(F)c(F)c3)c3nc(N4CCOCC4)cnc3c2)CC(C)N1 (stereo not drawn) [Compound 357b] | 1 | 158 | 0.933 | > 30.2 | 8.13 | 30 | 14 | 120 |
| CN(C)C(=O)c1cc(N(C)Cc2cc(F)cc(F)c2)c2nc(N3CCOCC3)cnc2c1 [Compound 358] | 148 | 2240 | 10 | > 30.2 | 17.8 | > 513 | > 513 | 80 |
| CC(C)NCCNC(=O)c1cc(C(C)Nc2ccc(F)c(F)c2)c2nc(N3CCOCC3)cnc2c1 (stereo not drawn) [Compound 364] | 5 | 813 | 7.41 | > 30.2 | 13.8 | 49 | 43 | 80 |
| CC(Nc1ccc(F)c(F)c1)c1cc(C(=O)NC[C@H]2CCCN2)cc2ncc(N3CCOCC3)nc12 (stereo partly drawn) [Compound 376] | 1 | 295 | 4.27 | > 30.2 | 5.13 | 105 | 85 | 130 |
| Cc1c(F)cccc1CNc1cc(C(=O)NCCN(C)C)cc2ncc(N3CCOCC3)nc12 [Compound 383] | 1 | 234 | 1.23 | 7.08 | 7.94 | 23 | 6 | 172 |
| CN(C)CCNC(=O)c1cc(CNc2cc(F)cc(F)c2)c2nc(N3CCOCC3)cnc2c1 [Compound 394] | 0.2 | 776 | 3.24 | 23.4 | 12.6 | ~26.3 | 18 | 161 |
| CN(C)C(=O)c1cc(N2CCCC2c2cc(F)cc(F)c2)c2nc(N3CCOCC3)cnc2c1 (stereo not drawn) [Compound 395] | 33 | 2240 | 3.47 | 18.2 | 14.1 | > 513 | > 513 | 80 |
| Cc1c(CNc2cc(C(=O)N(C)C)cc3ncc(N4CCOCC4)nc23)cccc1C(F)(F)F [Compound 399] | 45 | 5250 | 2.82 | > 30.2 | 9.33 | > 513 | > 513 | 202 |

The next lines start with the values.

| Kd [1] [nM] | Kd [2] [nM] | Kd [3] [µM] | Kd [4] [µM] | Kd [5] [µM] | IC50 [6] [nM] | IC50 [7] [nM] | melting point [°C] | Compound |
| --- | --- | --- | --- | --- | --- | --- | --- | --- |
| 17 | 5010 | > 30.2 | > 30.2 | > 30.2 | 513 | 91 | 150 | Cc1c(F)cccc1NCc1cc(C(=O)N(C)C)cc2ncc(N3CCOCC3)nc12 [Compound 382] |
| 36 | 661 | 2.69 | > 30.2 | 22.9 | > 513 | > 513 | 70 | CN(C)C(=O)c1cc(N2CCC2c2ccc(F)cc2)c2nc(N3CCOCC3)cnc2c1 (stereo not drawn) [Compound 397] |
| 24 | 1590 | 2.34 | 26.3 | 18.6 | 457 | ~372 | 80 | CN(C)C(=O)c1cc(NCc2ccc(F)cc2)c2nc(N3CCOCC3)cnc2c1 [Compound 400] |
| 550 | 12300 | 1.86 | 11.5 | > 30.2 | > 513 | > 513 | 80 | C[C@H](Nc1cc(C(=O)N(C)C)cc2ncc(N3CCOCC3)nc12)c1ccc(F)cc1 [Compound 401] |
| 44 | 4070 | 4.47 | > 30.2 | > 30.2 | > 513 | > 513 | 80 | CC(Nc1cc(C(=O)N(C)C)cc2ncc(N3CCOCC3)nc12)c1cc(F)cc(F)c1 (stereo not drawn) [Compound 402] |
